From ChEMBL document CHEMBL3397042, “Synthesis of a chondroitin sulfate disaccharide library and a GAG-binding protein interaction analysis” (Bioorg Med Chem Lett, 2015)

Target: Fibroblast growth factor 2 (Homo sapiens, UniProt P09038)
Test: Binding affinity to basic fibroblast growth factor (unknown origin) using sugar chip immobilized compound by surface plasmon resonance method; call rule not given here

Chain of Fibroblast growth factor 2 (P09038 143-288 limits assumed): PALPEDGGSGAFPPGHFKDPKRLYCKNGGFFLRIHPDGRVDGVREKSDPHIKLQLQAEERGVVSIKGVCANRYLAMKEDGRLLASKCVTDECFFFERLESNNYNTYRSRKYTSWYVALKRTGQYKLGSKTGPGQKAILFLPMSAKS

Row | Compound | Kd | Kd (read-out: Kd)
1 | CC(=O)N[C@H]1[C@@H](OC[C@@H](O)[C@@H](O)[C@H](O)[C@@H](O)CNc2cccc(NC(=O)CCCCC3CCSS3)c2)O[C@H](CO)[C@H](O)[C@@H]1O[C@@H]1O[C@H](C(=O)[O-])[C@@H](O)[C@H](O)[C@H]1O.[Na+] (stereo partly specified) | Not Active | 
2 | CC(=O)N[C@H]1[C@@H](OC[C@@H](O)[C@@H](O)[C@H](O)[C@@H](O)CNc2cccc(NC(=O)CCCCC3CCSS3)c2)O[C@H](COS(=O)(=O)O)[C@H](OS(=O)(=O)O)[C@@H]1O[C@@H]1O[C@H](C(=O)O)[C@@H](O)[C@H](O)[C@H]1O (stereo partly specified) |  | 0.016 µM
3 | CC(=O)N[C@H]1[C@@H](OC[C@@H](O)[C@@H](O)[C@H](O)[C@@H](O)CNc2cccc(NC(=O)CCCCC3CCSS3)c2)O[C@H](CO)[C@H](OS(=O)(=O)O)[C@@H]1O[C@@H]1O[C@H](C(=O)O)[C@@H](O)[C@H](OS(=O)(=O)O)[C@H]1O (stereo partly specified) |  | 0.041 µM
4 | CC(=O)N[C@H]1[C@@H](OC[C@@H](O)[C@@H](O)[C@H](O)[C@@H](O)CNc2cccc(NC(=O)CCCCC3CCSS3)c2)O[C@H](CO)[C@H](OS(=O)(=O)[O-])[C@@H]1O[C@@H]1O[C@H](C(=O)[O-])[C@@H](O)[C@H](O)[C@H]1O.[Na+].[Na+] (mixture of isomers) | Not Active | 
5 | CC(=O)N[C@H]1[C@@H](OC[C@@H](O)[C@@H](O)[C@H](O)[C@@H](O)CNc2cccc(NC(=O)CCCCC3CCSS3)c2)O[C@H](COS(=O)(=O)O)[C@H](O)[C@@H]1O[C@@H]1O[C@H](C(=O)O)[C@@H](O)[C@H](O)[C@H]1O (mixture of isomers) |  | 0.036 µM
6 | CC(=O)N[C@H]1[C@@H](OC[C@@H](O)[C@@H](O)[C@H](O)[C@@H](O)CNc2cccc(NC(=O)CCCCC3CCSS3)c2)O[C@H](CO)[C@H](O)[C@@H]1O[C@@H]1O[C@H](C(=O)O)[C@@H](O)[C@H](O)[C@H]1OS(=O)(=O)O (mixture of isomers) |  | 0.062 µM
7 | CC(=O)N[C@H]1[C@@H](OC[C@@H](O)[C@@H](O)[C@H](O)[C@@H](O)CNc2cccc(NC(=O)CCCCC3CCSS3)c2)O[C@H](CO)[C@H](O)[C@@H]1O[C@@H]1O[C@H](C(=O)O)[C@@H](O)[C@H](OS(=O)(=O)O)[C@H]1O (mixture of isomers) |  | 0.025 µM
8 | CC(=O)N[C@H]1[C@@H](OC[C@@H](O)[C@@H](O)[C@H](O)[C@@H](O)CNc2cccc(NC(=O)CCCCC3CCSS3)c2)O[C@H](CO)[C@H](OS(=O)(=O)O)[C@@H]1O[C@@H]1O[C@H](C(=O)O)[C@@H](O)[C@H](O)[C@H]1OS(=O)(=O)O (mixture of isomers) |  | 0.041 µM
9 | CC(=O)N[C@H]1[C@@H](OC[C@@H](O)[C@@H](O)[C@H](O)[C@@H](O)CNc2cccc(NC(=O)CCCCC3CCSS3)c2)O[C@H](COS(=O)(=O)O)[C@H](O)[C@@H]1O[C@@H]1O[C@H](C(=O)O)[C@@H](O)[C@H](O)[C@H]1OS(=O)(=O)O (mixture of isomers) |  | 0.023 µM
10 | CC(=O)N[C@H]1[C@@H](OC[C@@H](O)[C@@H](O)[C@H](O)[C@@H](O)CNc2cccc(NC(=O)CCCCC3CCSS3)c2)O[C@H](COS(=O)(=O)O)[C@H](O)[C@@H]1O[C@@H]1O[C@H](C(=O)O)[C@@H](O)[C@H](OS(=O)(=O)O)[C@H]1O (mixture of isomers) |  | 0.147 µM
11 | CC(=O)N[C@H]1[C@@H](OC[C@@H](O)[C@@H](O)[C@H](O)[C@@H](O)CNc2cccc(NC(=O)CCCCC3CCSS3)c2)O[C@H](CO)[C@H](O)[C@@H]1O[C@@H]1O[C@H](C(=O)O)[C@@H](O)[C@H](OS(=O)(=O)O)[C@H]1OS(=O)(=O)O (mixture of isomers) |  | 0.095 µM
12 | CC(=O)N[C@H]1[C@@H](OC[C@@H](O)[C@@H](O)[C@H](O)[C@@H](O)CNc2cccc(NC(=O)CCCCC3CCSS3)c2)O[C@H](COS(=O)(=O)O)[C@H](OS(=O)(=O)O)[C@@H]1O[C@@H]1O[C@H](C(=O)O)[C@@H](O)[C@H](O)[C@H]1OS(=O)(=O)O (mixture of isomers) |  | 0.021 µM
13 | CC(=O)N[C@H]1[C@@H](OC[C@@H](O)[C@@H](O)[C@H](O)[C@@H](O)CNc2cccc(NC(=O)CCCCC3CCSS3)c2)O[C@H](COS(=O)(=O)O)[C@H](OS(=O)(=O)O)[C@@H]1O[C@@H]1O[C@H](C(=O)O)[C@@H](O)[C@H](OS(=O)(=O)O)[C@H]1O (mixture of isomers) |  | 0.06 µM
14 | CC(=O)N[C@H]1[C@@H](OC[C@@H](O)[C@@H](O)[C@H](O)[C@@H](O)CNc2cccc(NC(=O)CCCCC3CCSS3)c2)O[C@H](CO)[C@H](OS(=O)(=O)O)[C@@H]1O[C@@H]1O[C@H](C(=O)O)[C@@H](O)[C@H](OS(=O)(=O)O)[C@H]1OS(=O)(=O)O (mixture of isomers) |  | 0.052 µM
15 | CC(=O)N[C@H]1[C@@H](OC[C@@H](O)[C@@H](O)[C@H](O)[C@@H](O)CNc2cccc(NC(=O)CCCCC3CCSS3)c2)O[C@H](COS(=O)(=O)O)[C@H](O)[C@@H]1O[C@@H]1O[C@H](C(=O)O)[C@@H](O)[C@H](OS(=O)(=O)O)[C@H]1OS(=O)(=O)O (mixture of isomers) |  | 0.099 µM
16 | CC(=O)N[C@H]1[C@@H](OC[C@@H](O)[C@@H](O)[C@H](O)[C@@H](O)CNc2cccc(NC(=O)CCCCC3CCSS3)c2)O[C@H](COS(=O)(=O)O)[C@H](OS(=O)(=O)O)[C@@H]1O[C@@H]1O[C@H](C(=O)O)[C@@H](O)[C@H](OS(=O)(=O)O)[C@H]1OS(=O)(=O)O (mixture of isomers) |  | 0.0049 µM
